{"source": "paper PMC4022547", "about": "(Molecular Brain, 2014)", "key": {"hα6hβ4hβ3^V9’S-nAChR": {"molecular_target": "hα6hβ4hβ3^V9’S-nAChR (Homo sapiens, UniProt P30926+Q05901+Q15825, V273S)", "conditions": "nicotine (100 μM), ACh (100 μM) or atropine (1000 μM); spontaneously opening channels", "method": "(§1) We planned to introduce identical amounts of cRNA, presumably producing equal amounts of each subunit protein, into oocytes largely due to lack of information about the levels of mRNA for each subunits that compose α6*-nAChRs in neurons or other cells. Concentrations of cRNAs for each nAChR α and β subunits (WT, mutant or variant) were adjusted to 500 ng μL^−1. We provisionally assumed that hα6 or its variants in association with hβ2 or hβ4 subunits would form complexes having 2:3 and/or 3:2 ratios of the indicated subunits and that oocytes also injected with WT or mutant form of β3 subunits (i.e., β3^V9’S) would express nAChR with 2:2:1 ratios of α:β:(β3 or β3^V9’S) subunits. For expression of binary nAChRs (i.e., two subunit containing nAChRs; α + β but not β3) cRNA mixtures were prepared by mixing 1 μL of cRNA for each subunit and an additional μL of RNAse free water (i.e., total volume 3 μL). Similarly for expression of ternary nAChRs [i.e., three subunit containing nAChRs; (α + β) + (β3 or β3^V9’S)] cRNA mixtures were prepared by mixing 1 μL of cRNA for each subunit. Several preparations of each mixture were prepared and stored at −80°C until further use. Injection of 138 nL of cRNA, out of 3 μL cRNA mixtures, into each oocyte would deliver ~23 ng of cRNA for each subunit whether binary or ternary nAChRs are expressed.\n(§2) Two to 5 days after injection, oocytes were placed in a small-volume chamber and continuously perfused with OR2. The chamber was grounded through an agarose bridge. The oocytes were voltage-clamped at −70 mV (unless otherwise noted) to measure agonist or antagonist induced currents using Axoclamp 900A and pClamp 10.2 software (Molecular Devices, Sunnyvale, CA). The current signal was low-pass filtered at 10 Hz with the built-in low-pass Bessel filter in the Axoclamp 900A and digitized at 20 Hz with Axon Digidata1440A and pClamp10. […] Drugs (agonists and antagonists) were prepared daily in OR2. Drug was applied using a Valvelink 8.2 perfusion system (Automate scientific, Berkeley, CA). […] Then for the purpose of comparison electrophysiological recordings were performed in a given day in a given batch of oocytes following the same order of injections. […] All hβ4*-nAChR recordings were done in similar conditions to facilitate comparisons between hα6hβ4- and hα6hβ4hβ3-nAChRs. All electrophysiological measurements were conducted or checked in at least two batches of oocytes."}, "[1]": {"molecular_target": "hα6^N171Khβ4β3^V9’S-nAChR (Homo sapiens, UniProt P30926+Q15825, N171K)", "conditions": "nicotine (100 μM), ACh (100 μM) or atropine (1000 μM)", "method": "as §1, §2"}, "[2]": {"molecular_target": "hα6^S156Rhβ4hβ3^V9’S-nAChR (Homo sapiens, UniProt P30926+Q15825, S156R)", "conditions": "nicotine (100 μM), ACh (100 μM) or atropine (1000 μM)", "method": "as §1, §2"}, "[3]": {"molecular_target": "hα6^D57Nhβ4hβ3^V9’S-nAChR (Homo sapiens, UniProt P30926+Q15825, D57N)", "conditions": "nicotine (100 μM), ACh (100 μM) or atropine (1000 μM)", "method": "as §1, §2"}, "[4]": {"molecular_target": "hα6^R87C + hβ4 + hβ3^V9’S nAChR (Homo sapiens, UniProt P30926+Q15825, R87C)", "conditions": "nicotine (100 μM), ACh (100 μM) or atropine (1000 μM)", "method": "as §1, §2"}, "[5]": {"molecular_target": "hα6(N46K) + codon optimized hβ2 + hβ3^V9’S nAChR (Homo sapiens, UniProt P17787+Q15825, N46K)", "conditions": "100 μM nicotine; oocytes clamped at −70 mV", "method": "as §1, §2\n(§3) Raw data was collected and processed in part using pClamp 10.2 (Molecular Devices, Sunnyvale, CA), Origin 7.5 (OriginLab Corporation, Northampton, MA) and a spreadsheet (Excel; Microsoft, Bellevue, WA). Peak current amplitudes (Imax) are reported as mean ± SEM (for results from at least three oocytes, i.e., n = 3)."}, "hα6(D92E) + hβ4 nAChR": {"molecular_target": "hα6(D92E) + hβ4 nAChR (Homo sapiens, UniProt P30926+Q15825, D92E)", "conditions": "100 μM nicotine; oocytes clamped at −70 mV", "method": "as §1, §2, §3"}, "[6]": {"molecular_target": "hα6(N171K) + WT hβ2 + hβ3^V9’S nAChR (Homo sapiens, UniProt P17787+Q15825, N171K)", "sequence (Q15825 26-494 N171K)": "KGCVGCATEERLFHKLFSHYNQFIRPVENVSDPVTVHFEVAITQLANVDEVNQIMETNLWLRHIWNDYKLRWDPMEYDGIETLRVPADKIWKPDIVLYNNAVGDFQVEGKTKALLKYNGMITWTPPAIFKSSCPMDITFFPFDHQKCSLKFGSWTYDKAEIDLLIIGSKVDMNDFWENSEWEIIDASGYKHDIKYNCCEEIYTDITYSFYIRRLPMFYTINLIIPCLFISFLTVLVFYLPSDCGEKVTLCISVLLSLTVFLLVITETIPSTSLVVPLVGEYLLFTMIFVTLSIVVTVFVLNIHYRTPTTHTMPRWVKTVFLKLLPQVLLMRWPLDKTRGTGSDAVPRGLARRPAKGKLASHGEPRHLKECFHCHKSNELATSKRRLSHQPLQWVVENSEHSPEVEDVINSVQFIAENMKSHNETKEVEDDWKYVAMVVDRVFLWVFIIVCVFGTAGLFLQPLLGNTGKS", "sequence (P17787 26-502)": "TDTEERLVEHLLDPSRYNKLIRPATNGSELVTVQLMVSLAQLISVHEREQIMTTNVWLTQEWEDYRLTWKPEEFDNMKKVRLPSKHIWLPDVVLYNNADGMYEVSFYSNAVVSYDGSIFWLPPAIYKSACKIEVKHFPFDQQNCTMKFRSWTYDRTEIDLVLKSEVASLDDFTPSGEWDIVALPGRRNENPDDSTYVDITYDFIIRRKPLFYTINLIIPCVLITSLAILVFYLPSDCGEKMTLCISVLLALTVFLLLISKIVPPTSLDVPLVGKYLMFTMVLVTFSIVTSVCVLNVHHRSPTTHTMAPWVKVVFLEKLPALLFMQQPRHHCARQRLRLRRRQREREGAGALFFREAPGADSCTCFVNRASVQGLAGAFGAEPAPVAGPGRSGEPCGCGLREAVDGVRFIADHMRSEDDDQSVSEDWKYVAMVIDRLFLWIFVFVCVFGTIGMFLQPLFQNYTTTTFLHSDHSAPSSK", "conditions": "nicotine", "method": "as §1, §2, §3"}, "[7]": {"molecular_target": "hα6 + WT hβ2 + hβ3^V9’S nAChR (Homo sapiens, UniProt P17787+Q15825)", "sequence (Q15825 26-494)": "as the sequence (Q15825 26-494 N171K) above, with K146N counted along it", "sequence (P17787 26-502)": "as the sequence (P17787 26-502) above", "sequence (Q05901 22-458 V273S partner)": "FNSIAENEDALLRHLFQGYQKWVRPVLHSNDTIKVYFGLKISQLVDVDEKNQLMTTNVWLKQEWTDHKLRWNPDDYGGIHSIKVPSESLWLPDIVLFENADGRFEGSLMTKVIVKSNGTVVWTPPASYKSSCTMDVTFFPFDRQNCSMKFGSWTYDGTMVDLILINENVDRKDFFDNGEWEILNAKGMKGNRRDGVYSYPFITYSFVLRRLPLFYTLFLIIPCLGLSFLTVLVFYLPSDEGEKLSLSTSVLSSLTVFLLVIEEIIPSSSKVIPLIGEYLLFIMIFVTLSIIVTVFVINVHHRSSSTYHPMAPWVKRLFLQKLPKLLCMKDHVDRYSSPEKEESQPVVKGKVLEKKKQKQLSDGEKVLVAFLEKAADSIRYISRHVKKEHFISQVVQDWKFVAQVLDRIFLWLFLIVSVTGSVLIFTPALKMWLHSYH", "conditions": "100 μM nicotine; 3 days after cRNA injection", "method": "as §1, §2, §3"}, "[8]": {"molecular_target": "hα6(A112V) + hβ4 + hβ3 nAChR (Homo sapiens, UniProt P30926+Q15825, A112V)", "conditions": "100 μM nicotine; oocytes clamped at −70 mV", "method": "as §1, §2, §3"}, "[9]": {"molecular_target": "hα6(A184D) + codon optimized hβ2 + hβ3^V9’S nAChR (Homo sapiens, UniProt P17787+Q15825, A184D)", "conditions": "100 μM nicotine; oocytes clamped at −70 mV", "method": "as §1, §2, §3"}, "[10]": {"molecular_target": "hα6(S43P) + codon optimized hβ2 + hβ3^V9’S nAChR (Homo sapiens, UniProt P17787+Q15825, S43P)", "conditions": "100 μM nicotine; oocytes clamped at −70 mV", "method": "as §1, §2, §3"}, "hα6(I226T) + hβ4 nAChR": {"molecular_target": "hα6(I226T) + hβ4 nAChR (Homo sapiens, UniProt P30926+Q15825, I226T)", "sequence (Q15825 26-494 I226T)": "as the sequence (Q15825 26-494 N171K) above, with K146N, I201T counted along it", "sequence (P30926 22-498)": "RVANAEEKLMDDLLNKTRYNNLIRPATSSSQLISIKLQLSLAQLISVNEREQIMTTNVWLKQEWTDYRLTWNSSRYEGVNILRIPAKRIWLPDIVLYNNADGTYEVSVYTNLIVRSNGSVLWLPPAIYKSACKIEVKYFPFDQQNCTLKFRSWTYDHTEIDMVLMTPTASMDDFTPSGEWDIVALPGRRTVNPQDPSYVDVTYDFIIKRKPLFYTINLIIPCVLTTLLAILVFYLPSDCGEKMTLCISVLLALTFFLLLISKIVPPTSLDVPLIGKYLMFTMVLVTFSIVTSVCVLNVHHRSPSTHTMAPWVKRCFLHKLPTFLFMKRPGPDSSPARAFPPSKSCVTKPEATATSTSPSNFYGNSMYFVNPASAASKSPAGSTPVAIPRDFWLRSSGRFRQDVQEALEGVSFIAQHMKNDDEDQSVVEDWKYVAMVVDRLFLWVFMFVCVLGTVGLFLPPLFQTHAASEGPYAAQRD", "conditions": "100 μM nicotine; oocytes clamped at −70 mV", "method": "as §1, §2, §3"}, "[11]": {"molecular_target": "hα6(N171K) + hβ4 + hβ3 nAChR (Homo sapiens, UniProt P30926+Q15825, N171K)", "conditions": "nicotine", "method": "as §1, §2, §3"}, "[12]": {"tested_on": "hα6(D199Y) + WT hβ2 + hβ3^V9’S nAChR", "conditions": "100 μM nicotine; higher, p < 0.05", "method": "as §1, §2, §3"}, "[13]": {"molecular_target": "hα6(I226T) + hβ4 + hβ3 nAChR (Homo sapiens, UniProt P30926+Q15825, I226T)", "sequence (Q15825 26-494 I226T)": "as the sequence (Q15825 26-494 N171K) above, with K146N, I201T counted along it", "sequence (P30926 22-498)": "as the sequence (P30926 22-498) above", "sequence (Q05901 25-458 partner limits assumed)": "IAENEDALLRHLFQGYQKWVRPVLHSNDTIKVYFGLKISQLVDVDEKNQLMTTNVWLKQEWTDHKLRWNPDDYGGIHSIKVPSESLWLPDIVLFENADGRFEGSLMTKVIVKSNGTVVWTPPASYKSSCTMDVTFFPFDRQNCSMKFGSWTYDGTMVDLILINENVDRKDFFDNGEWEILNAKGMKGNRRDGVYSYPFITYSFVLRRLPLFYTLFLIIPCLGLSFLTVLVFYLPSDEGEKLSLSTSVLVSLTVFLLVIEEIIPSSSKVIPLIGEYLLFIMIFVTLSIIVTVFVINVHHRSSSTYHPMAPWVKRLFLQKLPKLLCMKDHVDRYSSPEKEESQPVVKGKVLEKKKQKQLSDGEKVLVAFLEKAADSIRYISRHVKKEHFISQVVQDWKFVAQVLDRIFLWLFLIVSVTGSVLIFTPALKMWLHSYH", "conditions": "100 μM nicotine; oocytes clamped at −70 mV", "method": "as §1, §2, §3"}, "[14]": {"molecular_target": "hα6(S43P) + WT hβ2 + hβ3^V9’S nAChR (Homo sapiens, UniProt P17787+Q15825, S43P)", "conditions": "nicotine", "method": "as §1, §2, §3"}}, "note": "“And” between values parts separate entries of the source, which are not always exact repeats. Equal entries are not always repeated."}
{"smiles": "CN1CCC[C@H]1c1cccnc1", "note": "[nicotine, L-nicotine]", "values": [{"measurement": "current response (direction)", "setting": "hα6hβ4hβ3^V9’S-nAChR", "result": "robust inward current"}, {"measurement": "current response (direction)", "setting": "[1]", "result": "outward reversible currents"}, {"measurement": "current response (direction)", "setting": "[2]", "result": "outward reversible currents"}, {"measurement": "current response (direction)", "setting": "[3]", "result": "outward reversible currents"}, {"measurement": "current response", "setting": "[4]", "result": "not obtained"}, {"measurement": "peak current (Imax, mean ± SE)", "setting": "[5]", "result": "118 ± 33", "unit": "nA"}, {"measurement": "peak current (Imax, mean ± SE)", "setting": "hα6(D92E) + hβ4 nAChR", "result": "19 ± 2", "unit": "nA"}, {"measurement": "current response", "setting": "[6]", "result": "did not yield current responses"}, {"measurement": "peak current response", "setting": "[7]", "result": "15 ± 2 nA and 15-30 nA"}, {"measurement": "Mean (±SE) peak current response", "setting": "[8]", "result": "482 ± 59", "unit": "nA"}, {"measurement": "peak current (Imax, mean ± SE)", "setting": "[9]", "result": "616 ± 95", "unit": "nA"}, {"measurement": "peak current (Imax, mean ± SE)", "setting": "[10]", "result": "47 ± 9", "unit": "nA"}, {"measurement": "peak current (Imax, mean ± SE)", "setting": "hα6(I226T) + hβ4 nAChR", "result": "81 ± 10", "unit": "nA"}, {"measurement": "current response", "setting": "[11]", "result": "did not elicit current responses"}, {"measurement": "peak current response relative to hα6hβ2hβ3^V9’S-nAChRs", "setting": "[12]", "result": "2-5 fold"}, {"measurement": "Mean (±SE) peak current response", "setting": "[13]", "result": "403 ± 79", "unit": "nA"}, {"measurement": "current response", "setting": "[14]", "result": "did not yield current responses"}]}
